29 compounds from US9295673B2, “Combination of mTOR inhibitors and P13-kinase inhibitors, and uses thereof” (Intellikine LLC, priority 2011, dated 2016) can be followed below.

In general, IC50 refers to the midpoint of a concentration-inhibition curve.

Where only a bound is given, the exact number is not on record here.

Chain of PI3K β (P42338 whole entry): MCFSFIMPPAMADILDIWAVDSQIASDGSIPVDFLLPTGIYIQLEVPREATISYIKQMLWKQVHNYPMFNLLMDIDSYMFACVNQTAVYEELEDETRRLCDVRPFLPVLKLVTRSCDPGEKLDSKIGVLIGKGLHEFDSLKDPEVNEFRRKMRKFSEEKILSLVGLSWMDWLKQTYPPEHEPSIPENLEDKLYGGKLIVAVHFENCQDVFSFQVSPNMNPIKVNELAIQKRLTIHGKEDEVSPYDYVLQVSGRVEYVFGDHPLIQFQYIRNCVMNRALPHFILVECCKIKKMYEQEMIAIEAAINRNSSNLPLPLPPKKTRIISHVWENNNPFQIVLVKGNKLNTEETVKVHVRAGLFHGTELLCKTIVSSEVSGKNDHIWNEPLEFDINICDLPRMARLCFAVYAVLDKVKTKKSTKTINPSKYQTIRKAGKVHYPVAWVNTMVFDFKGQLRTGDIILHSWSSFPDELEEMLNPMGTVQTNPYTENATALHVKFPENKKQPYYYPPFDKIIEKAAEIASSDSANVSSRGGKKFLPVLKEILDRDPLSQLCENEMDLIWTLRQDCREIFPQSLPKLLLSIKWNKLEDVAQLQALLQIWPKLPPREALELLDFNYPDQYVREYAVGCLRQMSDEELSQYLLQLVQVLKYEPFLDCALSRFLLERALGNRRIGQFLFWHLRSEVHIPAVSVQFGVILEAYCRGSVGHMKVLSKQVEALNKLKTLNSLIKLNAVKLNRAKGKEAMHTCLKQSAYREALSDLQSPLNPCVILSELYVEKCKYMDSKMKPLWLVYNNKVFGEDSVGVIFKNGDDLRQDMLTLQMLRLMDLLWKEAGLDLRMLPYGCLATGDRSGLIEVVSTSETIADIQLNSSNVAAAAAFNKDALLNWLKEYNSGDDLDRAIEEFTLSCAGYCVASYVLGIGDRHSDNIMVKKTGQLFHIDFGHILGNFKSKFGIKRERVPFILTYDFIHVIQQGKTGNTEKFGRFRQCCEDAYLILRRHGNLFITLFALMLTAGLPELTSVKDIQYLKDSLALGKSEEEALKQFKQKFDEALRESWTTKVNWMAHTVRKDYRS
Chain of PI3K β (P27986 whole entry partner): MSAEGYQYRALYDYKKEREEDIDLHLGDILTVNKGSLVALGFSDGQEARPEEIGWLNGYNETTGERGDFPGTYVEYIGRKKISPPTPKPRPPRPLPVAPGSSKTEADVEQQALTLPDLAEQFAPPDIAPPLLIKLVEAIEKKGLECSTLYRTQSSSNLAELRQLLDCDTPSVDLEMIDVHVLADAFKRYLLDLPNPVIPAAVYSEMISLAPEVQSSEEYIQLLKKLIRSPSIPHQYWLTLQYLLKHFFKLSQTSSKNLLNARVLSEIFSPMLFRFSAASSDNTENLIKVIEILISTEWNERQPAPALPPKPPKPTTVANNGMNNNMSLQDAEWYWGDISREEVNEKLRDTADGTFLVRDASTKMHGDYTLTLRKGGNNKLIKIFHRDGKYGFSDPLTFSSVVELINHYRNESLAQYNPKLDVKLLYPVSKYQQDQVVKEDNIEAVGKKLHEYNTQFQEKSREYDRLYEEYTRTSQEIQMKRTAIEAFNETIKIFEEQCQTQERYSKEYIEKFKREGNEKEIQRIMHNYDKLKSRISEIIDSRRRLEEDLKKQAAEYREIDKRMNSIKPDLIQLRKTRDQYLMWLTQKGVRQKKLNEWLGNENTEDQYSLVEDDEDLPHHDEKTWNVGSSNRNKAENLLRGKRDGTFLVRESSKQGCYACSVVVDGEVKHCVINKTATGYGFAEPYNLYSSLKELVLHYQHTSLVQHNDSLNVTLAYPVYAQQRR

One assay has as its target PI3K β (Homo sapiens, UniProt P42338). The experiment in a line: PI 3-Kinase (human) HTRF assay, PI3K β. The note with it: read-out: PI3K β IC50; Table 4. For orientation: Time-resolved FRET reads energy transfer from a long-lived donor to a nearby acceptor.
Description: An exemplary system is PI 3-Kinase (human) HTRF™ Assay from Upstate. […] Briefly, the assay is a time resolved FRET assay that indirectly measures PIP3 product formed by the activity of a PI3-K. The kinase reaction is performed in a microtitre plate (e.g., a 384 well microtitre plate). The total reaction volume is approximately 20 ul per well. In the first step, each well receives 2 ul of test compound in 20% dimethylsulphoxide resulting in a 2% DMSO final concentration. […] The plate is sealed and incubated for 15 minutes at room temperature. […] The plate is sealed and incubated for 1 hour at room temperature. The reaction is stopped by adding 5 ul of Stop Solution per well and then 5 ul of Detection Mix is added per well. The plate is sealed, incubated for 1 hour at room temperature, and then read on an appropriate plate reader. Data is analyzed and IC50s are generated using GraphPad Prism 5.
As to `Nc1nc2cc(-c3ccc4ncc(-c5cccnc5)nc4n3)ccc2o1` [Compound 554], the half-maximal inhibitory concentration (IC50) is < 10 µM.

As to `CCOC(=O)N1CC=C(c2cnc3ccc(-c4ccc5oc(N)nc5c4)nc3n2)CC1` [Compound 560], the concentration for half-maximal inhibition (IC50) is < 10 µM.

In the case of `Nc1nc2cc(-c3ccc4ncc(C5=CCOCC5)nc4n3)ccc2o1` [Compound 562], the IC50 is < 10 µM.

As for `C[C@@H]1COCCN1c1cnc2ccc(-c3ccc4oc(N)nc4c3)nc2n1` [Compound 565], the IC50 was < 10 µM.

With `C[C@H]1COCCN1c1cnc2ccc(-c3ccc4oc(N)nc4c3)nc2n1` [Compound 566], the half-inhibitory concentration (IC50) was < 10 µM.

In the case of `Nc1nc2cc(-c3ccc4ncc(-c5cccnc5)cc4n3)ccc2o1` [Compound 567], the IC50 was < 10 µM.

In the case of `CCOC(=O)N1CCN(c2cnc3ccc(-c4ccc5oc(N)nc5c4)nc3c2)CC1` [Compound 587], the IC50 was < 10 µM.

Consider `Nc1nc2cc(-c3ccc4ncc(N5CCC(O)CC5)nc4n3)ccc2o1` [Compound 596], for which the IC50 was < 10 µM.

For `CC1(C)CN(C2CN(c3cnc4ccc(-c5ccc6oc(N)nc6c5)nc4n3)C2)CCN1` [Compound 603], the IC50 was < 10 µM.

Take `CC1(C)CN(C2CN(c3cnc4ccc(-c5ccc6oc(N)nc6c5)nc4c3)C2)CCN1` [Compound 609]: the concentration for half-maximal inhibition (IC50) is < 10 µM.

With `Cc1nccn1C1CN(c2cnc3ccc(-c4ccc5oc(N)nc5c4)nc3c2)C1` [Compound 614], the IC50 was < 10 µM.

On to `CN1CCN(C2CN(c3cnc4ccc(-c5ccc6oc(N)nc6c5)nc4c3)C2)CC1=O` [Compound 615], for which the IC50 was < 10 µM.

As for `Nc1nc2cc(-c3ccc4ncc(N5CC(N6CCN(CCO)CC6)C5)cc4n3)ccc2o1` [Compound 616], the IC50 was < 10 µM.

Consider `C[C@@H]1COCCN1C1CN(c2cnc3ccc(-c4ccc5oc(N)nc5c4)nc3c2)C1` [Compound 617], for which the IC50 was < 10 µM.

Consider `CN1CCN(C2CN(c3cnc4ccc(-c5ccc6oc(N)nc6c5)nc4n3)C2)CC1` [Compound 622], for which the IC50 was < 10 µM.

For a further assay, the target named is PI3K δ (Homo sapiens, UniProt O00329). As to the kind of experiment: PI 3-Kinase (human) HTRF assay, PI3K δ. The note with it: read-out: PI3K δ IC50.
Chain of PI3K δ (O00329 whole entry): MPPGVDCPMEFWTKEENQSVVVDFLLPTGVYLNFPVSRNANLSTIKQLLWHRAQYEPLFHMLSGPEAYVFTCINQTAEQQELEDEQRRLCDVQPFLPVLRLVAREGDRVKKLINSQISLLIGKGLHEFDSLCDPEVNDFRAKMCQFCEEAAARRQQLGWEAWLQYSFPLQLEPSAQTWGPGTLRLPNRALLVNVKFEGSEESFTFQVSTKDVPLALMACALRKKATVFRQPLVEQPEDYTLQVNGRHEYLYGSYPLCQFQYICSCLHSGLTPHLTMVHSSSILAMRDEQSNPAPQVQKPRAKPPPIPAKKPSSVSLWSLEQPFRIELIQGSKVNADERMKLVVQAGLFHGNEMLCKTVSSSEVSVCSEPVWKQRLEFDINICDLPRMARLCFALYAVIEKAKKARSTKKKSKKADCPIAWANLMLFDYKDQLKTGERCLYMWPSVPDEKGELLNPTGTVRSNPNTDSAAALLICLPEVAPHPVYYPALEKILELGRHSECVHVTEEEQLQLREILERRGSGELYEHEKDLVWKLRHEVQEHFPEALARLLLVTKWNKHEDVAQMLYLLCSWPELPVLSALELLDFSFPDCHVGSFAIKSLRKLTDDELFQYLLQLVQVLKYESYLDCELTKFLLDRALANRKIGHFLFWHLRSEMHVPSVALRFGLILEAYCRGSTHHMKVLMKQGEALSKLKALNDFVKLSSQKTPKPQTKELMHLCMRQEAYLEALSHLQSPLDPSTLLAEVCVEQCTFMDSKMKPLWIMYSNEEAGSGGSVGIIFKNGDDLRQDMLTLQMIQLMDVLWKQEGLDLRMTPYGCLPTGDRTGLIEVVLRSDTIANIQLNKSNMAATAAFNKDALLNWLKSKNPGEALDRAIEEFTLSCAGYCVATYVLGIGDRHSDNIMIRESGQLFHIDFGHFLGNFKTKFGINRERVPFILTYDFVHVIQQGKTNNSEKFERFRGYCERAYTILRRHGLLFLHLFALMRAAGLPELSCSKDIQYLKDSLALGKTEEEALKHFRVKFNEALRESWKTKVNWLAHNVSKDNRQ
Chain of PI3K δ (P27986 whole entry partner): as the sequence (P27986 whole entry partner) above
`C[C@@H]1CN(c2cnc3ccc(-c4ccc5oc(N)nc5c4)cc3n2)CCN1` [Compound 179]: the IC50 is < 10 µM.

Take `Nc1nc2cc(-c3ccc4ncc(C(=O)N5CC[C@H](O)C5)n4c3)ccc2o1` [Compound 264]: the IC50 was < 10 µM.

Regarding `Nc1nc2cc(-c3ccc4ncc(C(=O)N5CC[C@@H](O)C5)n4c3)ccc2o1` [Compound 265], the IC50 is < 10 µM.

Take `Nc1nc2cc(-c3ccc4ncc(N5CC(N6CC[C@H](O)C6)C5)nc4c3)ccc2o1` [Compound 322]: the IC50 was < 10 µM.

Turning to `CN1CCN([C@H]2CCN(c3cnc4ccc(-c5ccc6oc(N)nc6c5)cc4n3)C2)CC1` [Compound 381], the IC50 is < 10 µM.

`C[C@H]1CN(c2cnc3ccc(-c4ccc5oc(N)nc5c4)nc3c2)CCN1` [Compound 598]: the IC50 is < 10 µM.

Still in this assay, the particulars now being: read-out: PI3K δ IC50; Table 4.
In the case of `CS(=O)(=O)N1CCN(C2CN(c3cnc4ccc(-c5ccc6oc(N)nc6c5)nc4n3)C2)CC1` [Compound 559], the IC50 was < 10 µM.

As to `CCOC(=O)N1CC=C(c2cnc3ccc(-c4ccc5oc(N)nc5c4)nc3n2)CC1` [Compound 560], the IC50 is < 10 µM.

With `C[C@@H]1CN(C2CN(c3cnc4ccc(-c5ccc6oc(N)nc6c5)nc4n3)C2)CCN1` [Compound 563], the IC50 was < 10 µM.

On to `C[C@@H]1COCCN1c1cnc2ccc(-c3ccc4oc(N)nc4c3)nc2n1` [Compound 565], for which the IC50 is < 10 µM.

As for `Nc1nc2cc(-c3ccc4ncc(-c5cccnc5)cc4n3)ccc2o1` [Compound 567], the IC50 is < 10 µM.

In the case of `C[C@H]1CN(C2CN(c3cnc4ccc(-c5ccc6oc(N)nc6c5)nc4n3)C2)CCN1C` [Compound 572], the IC50 is < 10 µM.

Take `CN1CCN(c2cnc3ccc(-c4ccc5oc(N)nc5c4)nc3c2)CC1` [Compound 575]: the IC50 was < 10 µM.

Turning to `CCN(CC)c1cnc2ccc(-c3ccc4oc(N)nc4c3)nc2n1` [Compound 577], the IC50 is < 10 µM.

As to `C[C@@H]1CN(c2cnc3ccc(-c4ccc5oc(N)nc5c4)nc3n2)CCN1` [Compound 578], the IC50 was < 10 µM.

As to `CC(C)N1CCN(c2cnc3ccc(-c4ccc5oc(N)nc5c4)nc3n2)CC1` [Compound 583], the IC50 is < 10 µM.

Still in this assay, the particulars now being: read-out: PI3K δ IC50; in vitro.
As for `Cc1ncc(-c2ccc3ncc(C(=O)N4CCOCC4)n3c2)c2cn[nH]c12` [Compound 530], the IC50 was < 10 µM.
